According to patent US20170112737A1, “COSMETICS AND PHARMACEUTICAL APPLICATIONS OF GALLIC ACID AND GALLIC ACID DERIVATIVES” (GREENPHARMA, priority 2014, published 2017):
Several values for one entry are separate records, joined by “and”; a condition that tells them apart may be missing. Equal values may be shown once.

What was measured:
Type in all cases: cell-based, human
TGK [1] = assay: TGK immunolabeling in situ in NHEK cultures (Example 3); settings: 72 hours; for TGK Fluorescence intensity/Number of cells: individual values (n=3); for TGK expression in the NHEK cultures (in words): activity higher than CaCl2 reference as by 10 μg/ml
Protocol: Normal human epidermal keratinocytes (NHEK); reference BIOalternatives K341, used at the third passage. Culture conditions: 37° C., 5% CO2 Culture medium: keratinocytesSFM complemented with an epidermal growth factor (EGF) 0.25 ng/ml, a pituitary extract (PE) 25 μg/ml and gentamycin […]. Experiment medium: keratinocytesSFM complemented with gentamycin 25 μg/ml. The keratinocytes have been sowed and cultured to confluence in 96-well plates and then, the medium has been replaced by an experiment medium containing, or not (control test), the tested extract or the reference (CaCl2 at 1.5 mM) and the cells have been incubated for 72 hours. All experimental conditions have been realized with n=3, for each marker. After incubation, the test medium has been withdrawn and the cells have been rinsed, fixed and permeabilized. The cells have been marked with the primary antibodies directed against the considered proteins (TGK). […] In parallel, the nucleuses of the cells have been stained by the Hoechst 33258 (bisbenzimide). The acquisition of the images has been carried out with a high-resolution imaging system, INCell AnalyzerTM 1000 (GE Healthcare). For each well, 5 captures of digitized images have been performed. The labelings have been quantified by measurement of the fluorescence intensity of the proteins divided by the number of nucleuses identified by the Hoechst (integration of the digital data by the software Developer Toolbow 1.5, GE Healthcare).

TGK [2] = assay: TGK immunolabeling in situ in NHEK cultures, loosestrife extracts (Example 5); settings: 72 hours, 1.5 mM
Protocol: Normal human epidermal keratinocytes (NHEK); reference BIOalternatives K341, used at the third passage.
Culture conditions: 37° C., 5% CO2
Culture medium: keratinocytesSFM complemented with an epidermal growth factor (EGF) 0.25 ng/ml, a pituitary extract (PE) 25 μg/ml and gentamycin 25 μg/ml.
Experiment medium: keratinocytesSFM complemented with gentamycin 25 μg/ml.
The keratinocytes have been sowed and cultured to confluence in 96-well plates and then, the medium has been replaced by an experiment medium containing, or not (control test), the tested extract or the reference (CaCl2 at 1.5 mM) and the cells have been incubated for 72 hours. All experimental conditions have been realized with n=3, for each marker.
After incubation, the test medium has been withdrawn and the cells have been rinsed, fixed and permeabilized. […] The acquisition of the images has been carried out with a high-resolution imaging system, INCell Analyzer™ ([…] (GE Healthcare). For each well, 5 captures of digitized images have been performed. The labelings have been quantified by measurement of the fluorescence intensity of the proteins divided by the number of nucleuses identified by the Hoechst (integration of the digital data by the software Developer Toolbow 1.5, GE Healthcare). […]
The TGK expression is given as the Fluorescence intensity/Number of cells (UA)

procollagen I = assay: ELISA of procollagen I release by reconstructed skins in depleted medium; settings: reconstructed skins in depleted culture medium, 30 μg/ml and 60 μg/ml, D9
Protocol: (§1) Human skins reconstructed from a culture of keratinocytes sowed on a collagen lattice containing fibroblasts. Depleted culture medium: Epilife and supplements (without IGF-1 and without hydrocortisone)+CaCl2 1.5 mM+vitamin C (50 μg/ml). The reconstructed skins have been placed during the passage at the air-liquid interface (D0) in a 6-well plate in the depleted culture medium containing, or not (deficient control condition), the tested compounds. Afterwards, the reconstructed skins have been cultured for 9 days with the renewal of the culture medium containing, or not, the tested compounds every 2 to 3 days from D0 to D5, and then every day between D5 and D9. In parallel, a culture of the reconstructed skins in a complete medium has been realized, as a control test. The evaluation of the tested compound has been performed: • By histological analysis, by the histological observation of the epidermal thickness after HES (Hematoxylin-Eosin-Saffron) staining, • By RT-qPCR, by analysis of the expression of 16 markers (2 of which are reference genes) selected for their importance in cutaneous ageing, on the mRNAs extracted from the reconstructed skins for each treatment, and • By quantifying the release of MMP-1, MMP-3 and procollagen I in the suspensions of the cultures on D9, by ELISA assay, using ELISA assay kits used according to the instructions of the supplier.

MMP-3 = assay: ELISA of MMP-3 release by reconstructed skins in depleted medium; settings: reconstructed skins in depleted culture medium, 30 μg/ml and 60 μg/ml, D9
Protocol: as §1

MMP-1 = assay: ELISA of MMP-1 release by reconstructed skins in depleted medium; settings: reconstructed skins in depleted culture medium, 30 μg/ml and 60 μg/ml, D9
Protocol: as §1

reconstructed skins [3] = assay: Histological analysis (HES) of reconstructed skins in depleted medium; settings: 30 μg/ml and 60 μg/ml, 9 days
Protocol: Human skins reconstructed from a culture of keratinocytes sowed on a collagen lattice containing fibroblasts. The keratinocytes are cultured at 37° C., 5% CO2, at the air-liquid interface in one of the following media: Depleted culture medium: Epilife and supplements (without IGF-1 and without hydrocortisone)+CaCl2 1.5 mM+vitamin C (50 μg/ml). The following cultures have been realized: • Untreated reconstructed skins, • Skins reconstructed in a depleted medium, • Skins reconstructed in a depleted medium, each treated by a compound tested hereinabove, at a concentration of 30 μg/ml or 60 μg/ml. […] The evaluation of the tested compound has been performed: • By histological analysis, by the histological observation of the epidermal thickness after HES (Hematoxylin-Eosin-Saffron) staining, • By RT-qPCR, by analysis of the expression of 16 markers (2 of which are reference genes) selected for their importance in cutaneous ageing, on the mRNAs extracted from the reconstructed skins for each treatment, and • By quantifying the release of MMP-1, MMP-3 and procollagen I in the suspensions of the cultures on D9, by ELISA assay, using ELISA assay kits used according to the instructions of the supplier.

reconstructed skins [4] = assay: RT-qPCR of cutaneous ageing markers in reconstructed skins in depleted medium; settings: reconstructed skins in deficient medium, 30 μg/ml and 60 μg/ml, dose-dependent
Protocol: as §1, with “fibroblasts. The keratinocytes are cultured at 37° C., 5% CO2, at the air-liquid interface in one of the following media:” for “fibroblasts.”, “μg/ml). The following cultures have been realized: • Untreated reconstructed skins, • Skins reconstructed in a depleted medium, • Skins reconstructed in a depleted medium, each treated by a compound tested hereinabove, at a concentration of 30 μg/ml or 60 μg/ml.” for “μg/ml).”, “test. All experimental conditions have been realized with n=4.” for “test.”

Structure (SMILES) | TGK % Control test (TGK [1]; 0.0011 mg/ml) [%] | TGK % Stimulation (TGK [1]; 0.0011 mg/ml) [%] | TGK Fluorescence intensity/Number of cells, Average (TGK [1]; 0.0011 mg/ml) [UA] | TGK Fluorescence intensity/Number of cells (TGK [1]; 0.0011 mg/ml) | TGK % Control test (TGK [1]; 0.003 mg/ml) [%] | TGK % Stimulation (TGK [1]; 0.003 mg/ml) [%] | TGK Fluorescence intensity/Number of cells, Average (TGK [1]; 0.003 mg/ml) [UA] | TGK Fluorescence intensity/Number of cells (TGK [1]; 0.003 mg/ml) | TGK % Control test (TGK [1]; 0.01 mg/ml) [%] | TGK % Stimulation (TGK [1]; 0.01 mg/ml) [%] | TGK Fluorescence intensity/Number of cells, Average (TGK [1]; 0.01 mg/ml) [UA] | TGK Fluorescence intensity/Number of cells (TGK [1]; 0.01 mg/ml) | TGK expression in the NHEK cultures (in words) (TGK [1]) | also measured
[Ca+2].[Cl-].[Cl-] [CaCl2, reference compound] |  |  |  |  |  |  |  |  |  |  |  |  |  | TGK % Control test (TGK [1]; 1.5 mM): 473%; TGK % Stimulation (TGK [1]; 1.5 mM): 373%; TGK Fluorescence intensity/Number of cells, Average (TGK [1]; 1.5 mM): 29160 UA; TGK Fluorescence intensity/Number of cells (TGK [1]; 1.5 mM): 24066 UA and 30013 UA and 23527 UA; TGK Fluorescence intensity/Number of cells (TGK [1]; 1.5 mM, listed as Ca): 22987 UA and 24146 UA and 32180 UA; TGK % Control test (TGK [1]; 1.5 mM, listed as Ca): 425%; TGK % Stimulation (TGK [1]; 1.5 mM, listed as Ca): 325%; TGK Fluorescence intensity/Number of cells, Average (TGK [1]; 1.5 mM, listed as Ca): 20404 UA; TGK expression Average (Fluorescence intensity/Number of cells) (TGK [2]): 69610 UA; TGK expression, Control test % (TGK [2]): 316%
O=C1OC[C@H]2OC(=O)c3cc(O)c(O)c(O)c3-c3c(O)c(O)c(O)c4c3C(=O)O[C@H]([C@H]3OC(=O)c5c-4c(O)c(O)c(O)c5[C@H]3O)[C@@H]2OC(=O)c2cc(O)c(O)c(O)c2-c2c1cc(O)c(O)c2O [Castalagin] | 202 | 162 | 16135 | 21020 UA and 15623 UA and 11760 UA | 436 | 330 | 26867 | 30752 UA and 20672 UA and 23177 UA | 714 | 614 | 44055 | 59547 UA and 22164 UA and 50453 UA | induce the TGK expression in the NHEK cultures in a dose-dependent fashion | 
O=C(O)c1cc(O)c(O)c(O)c1 [Gallic acid, gallic acid] |  |  |  |  |  |  |  |  | 688 | 588 | 42738 | 47924 UA and 36228 UA and 44065 UA | induce the TGK expression in the NHEK cultures in a dose-dependent fashion | TGK % Control test (TGK [1]; 0.0003 mg/ml): 285%; TGK % Stimulation (TGK [1]; 0.0003 mg/ml): 165%; TGK Fluorescence intensity/Number of cells, Average (TGK [1]; 0.0003 mg/ml): 16260 UA; TGK Fluorescence intensity/Number of cells (TGK [1]; 0.0003 mg/ml): 18328 UA and 15263 UA and 15730 UA; TGK % Control test (TGK [1]; 0.03 mg/ml): 1110%; TGK % Stimulation (TGK [1]; 0.03 mg/ml): 1019%; TGK Fluorescence intensity/Number of cells, Average (TGK [1]; 0.03 mg/ml): 60518 UA; TGK Fluorescence intensity/Number of cells (TGK [1]; 0.03 mg/ml): 73870 UA and 53013 UA and 81670 UA
O=C1OC[C@H]2OC(=O)c3cc(O)c(O)c(O)c3-c3c(O)c(O)c(O)c4c3C(=O)O[C@H]([C@H]3OC(=O)c5c-4c(O)c(O)c(O)c5[C@@H]3O)[C@@H]2OC(=O)c2cc(O)c(O)c(O)c2-c2c1cc(O)c(O)c2O [Vescalagin] | 287 | 187 | 17722 | 22033 UA and 16688 UA and 14446 UA | 589 | 589 | 42460 | 32859 UA and 40124 UA and 54396 UA | 702 | 602 | 43284 | 27714 UA and 45383 UA and 98755 UA | induce the TGK expression in the NHEK cultures in a dose-dependent fashion | release of procollagen I (ELISA) (procollagen I): No modification; release of MMP-3 (ELISA) (MMP-3): major and significant decrease; release of MMP-1 (ELISA) (MMP-1): major and significant decrease; epidermis/dermis cohesion (HES) (reconstructed skins [3]): Partial recovery of the epidermis/dermis cohesion; histology (HES) (reconstructed skins [3]): improvement of their histology; expression of the inflammation markers (RT-qPCR) (reconstructed skins [4]): decrease of the expression of IL1B and PTGS2 to a lesser extent; expression of the marker of the extracellular matrix COLIA1 (RT-qPCR) (reconstructed skins [4]): increase of the expression of the marker of the extracellular matrix COLIA1; expression of the markers involved in the degradation of the extracellular matrix (RT-qPCR) (reconstructed skins [4]): decrease of the expression of the genes MMP1, MMP3 and TFPI2; expression of the markers of the cells of the basal layer (RT-qPCR) (reconstructed skins [4]): increase of the marker of the cell cycle MKI67; expression of the more tardive markers of the differentiation of the keratinocytes (RT-qPCR) (reconstructed skins [4]): decrease of the expression of TGM1 and CDSN
